Molecules are shown by their SMILES. “And” between values parts separate entries of the source, which are not always exact repeats. Equal entries are not always repeated. Inconclusive results are not listed.

This assay deals with CD8F1 mice, subcutaneous mammary adenocarcinoma, T/C%. Kind of assay: NCI In Vivo Anticancer Drug Screen. Data for tumor model Mammary Adenocarcinoma CD8F1 (subcutaneous) in CD8F1. The note with it: higher = larger tumour. The method in brief: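 Ratio of treated to vehicle-control outcome, based on either survival or tumor size, in mice bearing transplantable tumors given the test compound.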

Where [1] appears, read: endpoint: median tumor weight (est.), dose: 25.0 mg/kg/injection, schedule: Q07DX005 (ip), vehicle: saline with Tween-80.
Setting [2] is: endpoint: median tumor weight (est.), dose: 25.0 mg/kg/injection, schedule: Q07DX005 (ip), vehicle: Klucel (hydroxypropylcellulose) (HPC).
Setting [3] is: endpoint: median tumor weight (est.), dose: 100.0 mg/kg/injection, schedule: Q07DX005 (ip), vehicle: Klucel (hydroxypropylcellulose) (HPC).
[4] abbreviates: endpoint: median tumor weight change, dose: 125.0 mg/kg/injection, schedule: Q01DX001 (ip), vehicle: saline.
Setting [5] is: endpoint: median tumor weight change, dose: 250.0 mg/kg/injection, schedule: Q01DX001 (ip), vehicle: saline.
Setting [6] is: endpoint: median tumor weight change, dose: 500.0 mg/kg/injection, schedule: Q01DX001 (ip), vehicle: saline.

Consider `O=c1n(CC2CO2)c(=O)n(CC2CO2)c(=O)n1CC1CO1` (stereo not given), for which the T/C (endpoint: median tumor weight (est.), dose: 12.5 mg/kg/injection, schedule: Q07DX004 (ip), vehicle: saline with Tween-80) was 64 % of control; the T/C (endpoint: median tumor weight (est.), dose: 12.5 mg/kg/injection, schedule: Q07DX005 (ip), vehicle: saline with Tween-80) is 17 % of control; the T/C (endpoint: median tumor weight (est.), dose: 12.5 mg/kg/injection, schedule: Q07DX005 (ip), vehicle: suspension in saline) is 69 % of control and 55 % of control; the T/C (endpoint: median tumor weight (est.), dose: 25.0 mg/kg/injection, schedule: Q07DX004 (ip), vehicle: saline with Tween-80) was 79 % of control; the T/C under setting [1] is 4 % of control; the T/C (endpoint: median tumor weight (est.), dose: 50.0 mg/kg/injection, schedule: Q07DX004 (ip), vehicle: saline with Tween-80) was 42 % of control. The T/C (endpoint: median tumor weight (est.), dose: 50.0 mg/kg/injection, schedule: Q07DX005 (ip), vehicle: suspension in saline) is 12 % of control and 35 % of control.
In the case of `CC(C)[NH-].CC(C)[NH-].[Cl][Pt+2][Cl]`, the T/C is, setting by setting: (endpoint: median tumor weight (est.), dose: 3.12 mg/kg/injection, schedule: Q07DX005 (ip), vehicle: dextrose) 106 % of control; (endpoint: median tumor weight (est.), dose: 6.25 mg/kg/injection, schedule: Q07DX005 (ip), vehicle: dextrose) 80 % of control; (endpoint: median tumor weight (est.), dose: 12.5 mg/kg/injection, schedule: Q07DX005 (ip), vehicle: dextrose) 42 % of control; (endpoint: median tumor weight (est.), dose: 25.0 mg/kg/injection, schedule: Q07DX005 (ip), vehicle: dextrose) 76 % of control; (endpoint: median tumor weight (est.), dose: 50.0 mg/kg/injection, schedule: Q07DX005 (ip), vehicle: dextrose) 27 % of control; (endpoint: median tumor weight (est.), dose: 100.0 mg/kg/injection, schedule: Q07DX005 (ip), vehicle: dextrose) 42 % of control.
Consider `C[n+]1c(-c2cccc(OCCOCCOc3cccc(-c4c5cc(N)ccc5c5ccc(N)cc5[n+]4C)c3)c2)c2cc(N)ccc2c2ccc(N)cc21`, for which the T/C was 63 % of control (endpoint: median tumor weight change, dose: 5.0 mg/kg/injection, schedule: Q01DX001 (ip), vehicle: water); 72 % of control (endpoint: median tumor weight change, dose: 10.0 mg/kg/injection, schedule: Q01DX001 (ip), vehicle: water); 60 % of control (endpoint: median tumor weight change, dose: 40.0 mg/kg/injection, schedule: Q01DX001 (ip), vehicle: water).
`CC(=S)NC(O)C(=O)c1ccccc1` (stereo not given): the T/C reads like this: under setting [1], 79 % of control; (endpoint: median tumor weight (est.), dose: 100.0 mg/kg/injection, schedule: Q07DX005 (ip), vehicle: saline with Tween-80) 96 % of control; (endpoint: median tumor weight (est.), dose: 200.0 mg/kg/injection, schedule: Q07DX005 (ip), vehicle: saline with Tween-80) 111 % of control.
On to `CCOC(=O)C1C2OC(=O)C(C(=O)C2CN(CCCl)CCCl)C1C1CC=C(CC2=CCC(C3C4C(=O)OC(C(CN(CCCl)CCCl)C4=O)C3C(=O)OCC)CC2)CC1` (stereo not given), for which the T/C is 49 % of control (endpoint: median tumor weight (est.), dose: 12.5 mg/kg/injection, schedule: Q07DX005 (ip), vehicle: Klucel (hydroxypropylcellulose) (HPC)); 70 % of control under setting [2]; 31 % of control (endpoint: median tumor weight (est.), dose: 50.0 mg/kg/injection, schedule: Q07DX005 (ip), vehicle: Klucel (hydroxypropylcellulose) (HPC)); 1 % of control under setting [3].
As to `COC1/C=C\C=C(/C)C(=O)NC2=CC(=O)C=C(C2=O)C(OC)C(C)CC(OC)C(OC)C(C)/C=C(/C)C1OC(N)=O` (stereo not given), the T/C (endpoint: median tumor weight change, dose: 1.88 mg/kg/injection, schedule: Q01DX001 (ip), vehicle: Klucel (hydroxypropylcellulose) (HPC)) is 103 % of control and the T/C (endpoint: median tumor weight change, dose: 3.75 mg/kg/injection, schedule: Q01DX001 (ip), vehicle: Klucel (hydroxypropylcellulose) (HPC)) was 46 % of control.
Consider `Cc1c(N)nc(C(CC(N)=O)NCC(N)C(N)=O)nc1C(=O)NC(C(=O)NC(C)C(O)CC(=O)NC(C(=O)NC(OC1OC(C)C(N)C(O)C1O)C(O)c1nc(-c2nc(C(=O)NCCCC(N)CC(=O)NCCCNCCCCN)cs2)cs1)C(C)O)C(OC1OC(CO)C(O)C(O)C1OC1OC(CO)C(O)C(OC(N)=O)C1O)c1cnc[nH]1` (stereo not given), for which the T/C was 15 % of control (endpoint: median tumor weight (est.), dose: 2.0 mg/kg/injection, schedule: Q07DX005 (ip), vehicle: saline); 20 % of control (endpoint: median tumor weight (est.), dose: 4.0 mg/kg/injection, schedule: Q07DX005 (ip), vehicle: saline); 10 % of control (endpoint: median tumor weight (est.), dose: 8.0 mg/kg/injection, schedule: Q07DX005 (ip), vehicle: saline).
As for `C=C(C(=O)O)C(N)C(=O)O` (stereo not given), the T/C by setting is: (endpoint: median tumor weight change, dose: 62.5 mg/kg/injection, schedule: Q01DX001 (ip), vehicle: saline) 96 % of control; under setting [4], 100 % of control; under setting [5], 61 % of control; under setting [6], 71 % of control.
Consider `C[Si](C)(C)OSc1ccccc1[N+](=O)[O-]`, for which the T/C reads like this: (endpoint: median tumor weight change, dose: 125.0 mg/kg/injection, schedule: Q01DX001 (ip), vehicle: Klucel (hydroxypropylcellulose) (HPC)) 158 % of control; (endpoint: median tumor weight change, dose: 250.0 mg/kg/injection, schedule: Q01DX001 (ip), vehicle: Klucel (hydroxypropylcellulose) (HPC)) 120 % of control; (endpoint: median tumor weight change, dose: 500.0 mg/kg/injection, schedule: Q01DX001 (ip), vehicle: Klucel (hydroxypropylcellulose) (HPC)) 93 % of control; (endpoint: median tumor weight change, dose: 1000.0 mg/kg/injection, schedule: Q01DX001 (ip), vehicle: Klucel (hydroxypropylcellulose) (HPC)) 120 % of control; (endpoint: median tumor weight change, dose: 2000.0 mg/kg/injection, schedule: Q01DX001 (ip), vehicle: Klucel (hydroxypropylcellulose) (HPC)) 97 % of control.
Turning to `OC(CBr)C(O)C(O)C(O)CBr` (stereo not given), the T/C by setting is: (endpoint: mean tumor weight, dose: 100.0 mg/kg/injection, schedule: Q01DX009 (ip), vehicle: saline) 164 % of control; (endpoint: mean tumor weight, dose: 150.0 mg/kg/injection, schedule: Q01DX009 (ip), vehicle: saline) 89 % of control; (endpoint: mean tumor weight, dose: 200.0 mg/kg/injection, schedule: Q01DX009 (ip), vehicle: saline) 69 % of control; (endpoint: mean tumor weight, dose: 300.0 mg/kg/injection, schedule: Q01DX009 (ip), vehicle: saline) 49 % of control; (endpoint: mean tumor weight, dose: 400.0 mg/kg/injection, schedule: Q01DX009 (ip), vehicle: saline) 53 % of control; (endpoint: mean tumor weight, dose: 500.0 mg/kg/injection, schedule: Q01DX009 (ip), vehicle: saline) 38 % of control. For the same compound, the T/C was 49 % of control under setting [2]; 84 % of control (endpoint: median tumor weight (est.), dose: 25.0 mg/kg/injection, schedule: Q07DX005 (ip), vehicle: saline); 32 % of control (endpoint: median tumor weight (est.), dose: 50.0 mg/kg/injection, schedule: Q07DX005 (ip), vehicle: saline); 31 % of control under setting [3]; 41 % of control (endpoint: median tumor weight (est.), dose: 100.0 mg/kg/injection, schedule: Q07DX005 (ip), vehicle: saline); 2 % of control (endpoint: median tumor weight (est.), dose: 200.0 mg/kg/injection, schedule: Q07DX005 (ip), vehicle: Klucel (hydroxypropylcellulose) (HPC)). Further, the T/C by setting is: (endpoint: median tumor weight (est.), dose: 200.0 mg/kg/injection, schedule: Q07DX005 (ip), vehicle: saline) 28 % of control; (endpoint: median tumor weight (est.), dose: 400.0 mg/kg/injection, schedule: Q07DX005 (ip), vehicle: saline) 7 % of control; (endpoint: median tumor weight (est.), dose: 1200.0 mg/kg/injection, schedule: Q07DX005 (ip), vehicle: Klucel (hydroxypropylcellulose) (HPC)) 13 % of control; (endpoint: median tumor weight change, dose: 150.0 mg/kg/injection, schedule: Q01DX001 (ip), vehicle: Klucel (hydroxypropylcellulose) (HPC)) 95 % of control; (endpoint: median tumor weight change, dose: 300.0 mg/kg/injection, schedule: Q01DX001 (ip), vehicle: Klucel (hydroxypropylcellulose) (HPC)) 39 % of control; (endpoint: median tumor weight change, dose: 600.0 mg/kg/injection, schedule: Q01DX001 (ip), vehicle: Klucel (hydroxypropylcellulose) (HPC)) 51 % of control.
In the case of `COc1cc(Cc2nccc3cc(OC)c(OC)cc23)c(C(C)=O)c(OC)c1`, the T/C (endpoint: median tumor weight (est.), dose: 10.0 mg/kg/injection, schedule: Q07DX005 (ip), vehicle: suspension in saline) is 57 % of control; the T/C (endpoint: median tumor weight (est.), dose: 20.0 mg/kg/injection, schedule: Q07DX005 (ip), vehicle: suspension in saline) was 45 % of control; the T/C (endpoint: median tumor weight (est.), dose: 40.0 mg/kg/injection, schedule: Q07DX005 (ip), vehicle: suspension in saline) was 46 % of control; the T/C (endpoint: median tumor weight (est.), dose: 80.0 mg/kg/injection, schedule: Q07DX005 (ip), vehicle: suspension in saline) is 61 % of control; the T/C (endpoint: median tumor weight (est.), dose: 160.0 mg/kg/injection, schedule: Q07DX005 (ip), vehicle: suspension in saline) was 49 % of control.
Consider `C=C(NC(=O)C(=C)NC(=O)c1csc(C2=NC3c4csc(n4)C4NC(=O)c5csc(n5)C(C(C)(O)C(C)O)NC(=O)C5CSC(=N5)/C(=C/C)NC(=O)C(C(C)O)NC(=O)c5csc(n5)C3(CC2)NC(=O)C(C)NC(=O)C(=C)NC(=O)C(=C)NC(=O)C(C(C)C)NC2C=Cc3c(C(C)O)cc(nc3C2O)C(=O)OC4C)n1)C(N)=O` (stereo not given), for which the T/C runs as follows: under setting [4], 156 % of control; under setting [5], 106 % of control; under setting [6], 110 % of control; (endpoint: median tumor weight change, dose: 1000.0 mg/kg/injection, schedule: Q01DX001 (ip), vehicle: saline) 86 % of control.
Consider `[CH3][Sn]([CH3])([Cl])[S]CCN`, for which the T/C (endpoint: median tumor weight change, dose: 12.5 mg/kg/injection, schedule: Q01DX001 (ip), vehicle: saline) is 108 % of control.
